# Measured values published in US7211597B2, “Substituted pyrazolyl compounds for the treatment of inflammation” (priority 2001, dated 2007).
# pIC50: −log10 of the molar value. Read-outs that look alike come from different tables or passages of the source.
# Molecular target: T1, IKK2 (IKKβ) (Homo sapiens, UniProt O14920)
# T1 construct: made in house; host or cells: baculovirus-infected insect cells (SF9)
# T1 sequence (O14920 1-756): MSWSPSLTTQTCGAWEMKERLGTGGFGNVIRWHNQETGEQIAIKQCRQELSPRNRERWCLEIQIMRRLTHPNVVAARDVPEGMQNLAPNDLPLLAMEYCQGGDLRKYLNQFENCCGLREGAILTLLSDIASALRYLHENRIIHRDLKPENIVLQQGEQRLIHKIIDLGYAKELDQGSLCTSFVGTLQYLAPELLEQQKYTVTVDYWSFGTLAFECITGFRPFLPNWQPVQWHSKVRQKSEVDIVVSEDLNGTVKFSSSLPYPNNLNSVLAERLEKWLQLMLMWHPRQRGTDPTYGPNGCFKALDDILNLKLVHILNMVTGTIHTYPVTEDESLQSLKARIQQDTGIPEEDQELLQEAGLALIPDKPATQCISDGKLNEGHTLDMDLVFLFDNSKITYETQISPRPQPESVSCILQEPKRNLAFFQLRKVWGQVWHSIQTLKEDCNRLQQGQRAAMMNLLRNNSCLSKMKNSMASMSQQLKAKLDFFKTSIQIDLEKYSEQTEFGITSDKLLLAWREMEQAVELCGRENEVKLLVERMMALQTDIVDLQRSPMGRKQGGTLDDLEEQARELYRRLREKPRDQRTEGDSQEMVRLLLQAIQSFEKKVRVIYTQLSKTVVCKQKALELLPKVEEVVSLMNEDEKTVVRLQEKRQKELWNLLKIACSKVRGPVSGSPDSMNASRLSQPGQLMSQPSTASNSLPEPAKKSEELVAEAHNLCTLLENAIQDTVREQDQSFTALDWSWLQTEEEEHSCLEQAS
# Assay: IKK2 (IKKβ) resin enzyme assay
# Type: biochemical
# Text: cDNAs of human IKK1 and IKK2 were amplified by reverse transcriptase-polymerase chain reaction from human placental RNA (Clonetech). hIKK1 was subcloned into pFastBac HTa (Life Technologies) and expressed as N-terminal His6-tagged fusion protein. The hIKK2 cDNA was amplified using a reverse oligonucleotide primer which incorporated the peptide sequence for a FLAG-epitope tag at the C-terminus of the IKK2 coding region (DYKDDDDKD). The hIKK2:FLAG cDNA was subcloned into the baculovirus vector pFastBac. The rhIKK2 ([…]) mutant was constructed in the same vector used for wild type rhIKK2 using a QuikChange™ mutagenesis kit (Stratagene). Viral stocks of each construct were used to infect insect cells grown in 40L suspension culture. […] Cell lysates were stored at −80° C. until purification of the recombinant proteins was undertaken as described below.
# Isolation of rhIKK2 Homodimer
# A 10 liter culture of baculovirus-expressing IKK2 tagged with FLAG peptide was centrifuged and the cell pellet (MOI=0.1 and I=72 hrs) was re-suspended in buffer A. These cells were microfluidized, and centrifuged at 100,000×g for 45 min. Supernatant was passed over a G-25 column equilibrated with Buffer A. Protein peak was collected and incubated with anti-FLAG affinity resin on a rotator overnight in buffer B. The resin was washed in batch with 10-15 bed volumes of buffer C. Washed resin was poured into a column and rhIKK2 homodimer was eluted using 5 bed volumes of buffer B containing FLAG peptide. 5 mM DTT, 0.1% NP-40 and BSA (concentrated to 0.1% in final amount) was added to the eluted enzyme before concentrating in using an Amicon membrane with a molecular weight cut-off of 30 kDa. Enzyme was aliquoted and stored at −80° C.
# IKKβ kinase activity was measured using a biotinylated IκBα peptide (Gly-Leu-Lys-Lys-Glu-Arg-Leu-Leu-Asp-Asp-Arg-His-Asp-Ser32-Gly-Leu-Asp-Ser36-Met-Lys-Asp-Glu-Glu) (American Peptide Co.). […] contained 5 μM biotinylated IκBα peptide, 0.1 μCi/reaction [γ-^33P] ATP (Amersham) (about 1×10^5 cpm), 1 μM ATP (Sigma), 1 mM DTT (Sigma), 2 mM MgCl2 (Sigma), 2 mM MnCl2 (Sigma), 10 mM NaF (Sigma), 25 mM Hepes (Sigma) buffer, pH 7.6 and 20 μl enzyme solution and […] inhibitor in a final volume of 50 μl. After incubation at 25° C. for 30 min, 150 μl resin (Dowex anion-exchange resin AG1X8 200-400 mesh) in 900 mM formate, pH 3.0 was added to each well to stop the reaction. Resin was allowed to settle for one hour and 50 ul of supernatant was removed to a Micolite-2 flat bottom plate (Dynex). 150 μl of scintillation fluid (Microscint 40) (Packard) was added to each well. Incorporation of [γ-^33P] ATP was measured using a Top-Count NXT (Packard).
# [1] = Table 3, read-out: IKK2 Resin IC50
# [2] = Table 4, read-out: IKK2 Resin IC50
# [3] = Table 5, read-out: IKK2 Resin IC50
# [4] = Table 2, read-out: IKK2 Resin Avg. IC50
structure (smiles),measurement,setting,value
"NC(=O)c1nn(-c2ccc3c(c2)OCO3)c2c1COc1ccc(NC(=O)c3ccncc3Cl)cc1-2 [Example 32, 1-(1,3-benzodioxol-5-yl)-8-[(3-chloroisonicotinoyl)amino]-1,4-dihydrochromeno[4,3-c]pyrazole-3-carboxamide]",pIC50,[1],≥ 6.00
"NC(=O)c1nn(-c2ccc3c(c2)OCO3)c2c1COc1ccc(NC(=O)c3ccccc3Cl)cc1-2 [Example 34, 1-(1,3-benzodioxol-5-yl)-8-[(2-chlorobenzoyl)amino]-1,4-dihydrochromeno[4,3-c]pyrazole-3-carboxamide]",pIC50,[1],≥ 6.00
"NC(=O)c1nn(-c2ccc(F)cc2)c2c1COc1ccc(NC(=O)c3cccnc3Cl)cc1-2 [Example 47, 8-{[(2-chloropyridin-3-yl)carbonyl]amino}-1-(4-fluorophenyl)-1,4-dihydrochromenol[4,3-c]pyrazole-3-carboxamide]",pIC50,[2],≥ 6.00
"NC(=O)c1nn(-c2cccc(F)c2)c2c1COc1ccc(NC(=O)c3cccnc3Cl)cc1-2 [Example 48, 8-{[(2-chloropyridin-3-yl)carbonyl]amino}-1-(3-fluorophenyl)-1,4-dihydrochromenol[4,3-c]pyrazole-3-carboxamide]",pIC50,[2],≥ 6.00
"C[S+]([O-])c1ccc(-n2nc(C(N)=O)c3c2-c2cc(NC(=O)c4ccccc4Cl)ccc2OC3)cc1 (stereo not shown) [Example 55, 8-[(2-chlorobenzoyl)amino]-1-[4-(methylsulfinyl)phenyl]-1,4-dihydrochromeno[4,3-c]pyrazole-3-carboxamide]",pIC50,[3],≤ 6.00
"CC(=O)N1Cc2c(C(N)=O)nn(-c3ccc4c(c3)OCO4)c2-c2cc(NS(C)(=O)=O)ccc21 [Example 23, 5-acetyl-1-(1,3-benzodioxol-5-yl)-8-[(methylsulfonyl)amino]-4,5-dihydro-1H-pyrazolo[4,3-c]quinoline-3-carboxamide]",pIC50,[4],> 6.00
"CS(=O)(=O)c1ccc(-n2nc(C(N)=O)c3c2-c2cc(NC(=O)c4ccccc4Cl)ccc2OC3)cc1 [Example 54, 8-[(2-chlorobenzoyl)amino]-1-[4-(methylsulfonyl)phenyl]-1,4-dihydrochromeno[4,3-c]pyrazole-3-carboxamide]",pIC50,[3],≥ 6.00
"NC(=O)c1nn(-c2ccc3c(c2)OCO3)c2c1COc1ccc(NC(=O)c3cccc(Cl)c3Cl)cc1-2 [Example 45, 1-(1,3-benzodioxol-5-yl)-8-[(2,3-dichlorobenzoyl)amino]-1,4-dihydrochromenol[4,3-c]pyrazole-3-carboxamide]",pIC50,[1],≤ 4.00
"CC(=O)N1Cc2c(C(N)=O)nn(-c3ccc4c(c3)OCO4)c2-c2cc(NC(=O)c3ccccc3Cl)ccc21 [Example 18, 5-acetyl-1-(1,3-benzodioxol-5-yl)-8-[(2-chlorobenzoyl)amino]-4,5-dihydro-1H-pyrazolo[4,3-c]quinoline-3-carboxamide]",pIC50,[4],≥ 6.00
"NC(=O)c1nn(-c2ccc(F)cc2)c2c1COc1ccc(NC(=O)c3ccncc3Cl)cc1-2 [Example 53, 8-[(3-chloroisonicotinoyl)amino]-1-(4-fluorophenyl)-1,4-dihydrochromeno[4,3-c]pyrazole-3-carboxamide]",pIC50,[2],> 6.00
"CC(=O)N1Cc2c(C(N)=O)nn(-c3ccc(F)cc3)c2-c2cc(NS(C)(=O)=O)ccc21 [Example 25, 5-acetyl-1-(4-fluorophenyl)-8-[(methylsulfonyl)amino]-4,5-dihydro-1H-pyrazolo[4,3-c]quinoline-3-carboxamide]",pIC50,[4],> 6.00
"CC(=O)N1Cc2c(C(N)=O)nn(-c3ccc4c(c3)OCO4)c2-c2cc(N)ccc21 [Example 17, 5-acetyl-8-amino-1-(1,3-benzodioxol-5-yl)-4,5-dihydro-1H-pyrazolo[4,3-c]quinoline-3-carboxamide acetate]",pIC50,[4],≥ 6.00
"NC(=O)c1nn(-c2ccc3c(c2)OCO3)c2c1COc1ccc(NC(=O)c3cc4c(cc3Cl)OCO4)cc1-2 [Example 31, 1-(1,3-benzodioxol-5-yl)-8-{[(6-chloro-1,3-benzodioxol-5-yl)carbonyl]amino}-1,4-dihydrochromeno[4,3-c]pyrazole-3-carboxamide]",pIC50,[1],≥ 6.00
"NC(=O)c1nn(-c2ccc3c(c2)OCO3)c2c1COc1ccc(NC(=O)c3cc(N)ccc3Cl)cc1-2 [Example 33, 8-[(5-amino-2-chlorobenzoyl)amino]-1-(1,3-benzodioxol-5-yl)-1,4-dihydrochromeno[4,3-c]pyrazole-3-carboxamide]",pIC50,[1],≥ 6.00
CSc1ccc(-n2nc(C(N)=O)c3c2-c2cc(NC(=O)c4ccccc4Cl)ccc2OC3)cc1 [Example 57],pIC50,[3],≤ 5.00
"CC(=O)N1Cc2c(C(N)=O)nn(-c3ccc4c(c3)OCO4)c2-c2cc(NC(=O)c3ccncc3Cl)ccc21 [Example 22, 5-acetyl-1-(1,3-benzodioxol-5-yl)-8-[(3-chloroisonicotinoyl)amino]-4,5-dihydro-1H-pyrazolo[4,3-c]quinoline-3-carboxamide]",pIC50,[4],> 6.00
